Converted amounts (≈) assume the structure as drawn.

Format in all cases: functional
What all share (details): for LC50: Diaphorina citri, 48 h

The test system of assay [1] is Diaphorina citri. The assay can be described thus: Insecticidal activity against orange/yellow Diaphorina citri in citrus leaf assessed as mortality after 48 hr by leaf-dip petridish bioassay method.
The test system of assay [2] is Diaphorina citri. The assay can be described thus: Insecticidal activity against blue/green Diaphorina citri in citrus leaf assessed as mortality after 48 hr by leaf-dip petridish bioassay method.
The subject of assay [3] is Diaphorina citri. Description: Insecticidal activity against gray/brown Diaphorina citri in citrus leaf assessed as mortality after 48 hr by leaf-dip petridish bioassay method.

For `CCOP(=S)(OCC)Oc1nc(Cl)c(Cl)cc1Cl` [CHLORPYRIFOS], the LC95 with Diaphorina citri [1] stood at 2.67 µg/mL (≈ 7.62 µM); with Diaphorina citri [2], 12.12 µg/mL (≈ 34.6 µM); in the assay with Diaphorina citri [3], 11.62 µg/mL (≈ 33.1 µM). The 50% lethal concentration (LC50) (in general, the concentration that kills 50% of the test population) worked out at 0.92 µg/mL (≈ 2.62 µM) with Diaphorina citri [1], 3.93 µg/mL (≈ 11.2 µM) in the assay on Diaphorina citri [2] and 3.62 µg/mL (≈ 10.3 µM) in the assay with Diaphorina citri [3].

For the molecule `CC1(C)C(C(=O)OC(C#N)c2cccc(Oc3ccccc3)c2)C1(C)C` (centres undefined) [FENPROPATHRIN], in the assay on Diaphorina citri [2], the LC95 amounted to 29.21 µg/mL (≈ 83.6 µM) and the LC50 turned out to be 0.85 µg/mL (≈ 2.43 µM).

For `O=[N+]([O-])/N=C1\NCCN1Cc1ccc(Cl)nc1` [IMIDACLOPRID], the LC95 in the assay with Diaphorina citri [1] turned out to be 1.09 µg/mL (≈ 4.26 µM); in the assay on Diaphorina citri [2] it was 1.84 µg/mL (≈ 7.2 µM); with Diaphorina citri [3] it was 1.59 µg/mL (≈ 6.22 µM). Also, the LC50 with Diaphorina citri [1] turned out to be 0.18 µg/mL (≈ 0.704 µM); in the assay on Diaphorina citri [2] it was 0.4 µg/mL (≈ 1.56 µM); in the assay with Diaphorina citri [3], 0.41 µg/mL (≈ 1.6 µM).

Source of the values: ChEMBL document CHEMBL3046453, “Abdominal color of the Asian citrus psyllid, Diaphorina citri, is associated with susceptibility to various insecticides” (2013).
